Laboratory results from US5506115A, “Reagent and method for determining activity of herpes protease” (G. D. Searle & Co., priority 1994, dated 1996).
Where a SMILES comes first, the peptide text is derived from it. The star is where a group is joined. Dabcyl = CN(C)c1ccc(N=Nc2ccc(C(=O)*)cc2)cc1; EDANS = O=S(=O)(O)c1cccc2c(NCCN*)cccc12; GABA = NCCCC(=O)O

Biological target: T1, CMV assemblin (Human cytomegalovirus, UniProt P16753)
T1 construct: a DNA construction encoding the protease domain of the UL 80 open reading frame; His6 (N); made in house; host or cells: E. coli
Test: Hydrolysis of fluorogenic substrate by CMV assemblin (fluorescence time course, FIG. 2)
Type: biochemical
Details: 10 μM DE1, protease added; 340 nm excitation, 480 nm emission; within 30 minutes
Procedure: The fluorometric assay developed to incorporate the substrate compounds of the invention is a method for the determination of a herpesvirus protease and inhibitors of a herpesvirus protease, e.g. a CMV protease (also known as assemblin) encoded by UL 80, which comprises placing a known amount of the herpesvirus protease in the wells of a "Microlite 1"96 well plate (Dynatek Laboratories, Inc.), adding a known amount of the substrate at 22° C., measuring the change in fluorescence with time and determining the molar velocity of the herpesvirus protease by comparing against a standard curve which relates changes in fluorescent intensity to changes in concentration of product. Potential inhibitors of the protease action can be added to the well to observe their effect on the protease cleavage activity.
The arrow indicates the addition of protease to 10 μM DE1 [SEQ ID NO:34]. […] Fluorescence magnitude is plotted versus time.
An assay was developed for screening potential herpesvirus protease inhibitors utilizing the substrates of the invention. Recombinant HCMV protease was purified from E. coli expressing a DNA construction encoding the protease domain of the UL 80 open reading frame of human cytomegalovirus strain AD169. The construction also encoded six additional histidine residues at the amino terminus of the protease. […]

T1 sequence (P16753 1-256): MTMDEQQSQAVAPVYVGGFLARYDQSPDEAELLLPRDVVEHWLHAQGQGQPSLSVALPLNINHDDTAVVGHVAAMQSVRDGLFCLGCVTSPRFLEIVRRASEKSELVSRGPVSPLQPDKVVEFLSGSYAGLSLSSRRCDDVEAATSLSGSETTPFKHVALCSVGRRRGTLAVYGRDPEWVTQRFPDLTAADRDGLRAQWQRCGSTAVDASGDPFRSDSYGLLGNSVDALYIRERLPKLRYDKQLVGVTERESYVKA

For CC(C)C[C@H](NC(=O)[C@H](CCCNC(=N)N)NC(=O)[C@H](C)NC(=O)[C@H](CO)NC(=O)[C@H](C)NC(=O)[C@H](CC(N)=O)NC(=O)[C@@H](NC(=O)[C@@H](NC(=O)CCCNC(=O)c1ccc(N=Nc2ccc(N(C)C)cc2)cc1)C(C)C)C(C)C)C(=O)NCCNc1cccc2c(S(=O)(=O)O)cccc12 [DE1, DABCYL-γ-Abu-Val-Val-Asn-Ala-Ser-Ala-Arg-Leu-EDANS] ({Dabcyl-GABA}-VVNASARL-{EDANS}), which “increase in fluorescence emission on cleavage of the substrate” value is on record?
Its value is 10 fold.
